Experimental data: PubChem BioAssay (NCI)
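Protocol summary: plate cells (96-well), add compound at 5 concentrations, incubate 48 h, interpolate endpoints linearly. TGI denotes the concentration required for complete inhibition of growth.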

Columns and labels:
Experiment in all cases: NCI tumour cell line growth inhibition, 48 h
MALME-3M melanoma = tested on: MALME-3M melanoma
HOP-62 NSCLC = tested on: HOP-62 NSCLC
SK-MEL-2 melanoma = tested on: SK-MEL-2 melanoma
BT-549 breast = tested on: BT-549 breast
ACHN renal = tested on: ACHN renal
M14 melanoma = tested on: M14 melanoma
OVCAR-5 ovarian = tested on: OVCAR-5 ovarian
HOP-92 NSCLC = tested on: HOP-92 NSCLC
LOX IMVI melanoma = tested on: LOX IMVI melanoma
OVCAR-8 ovarian = tested on: OVCAR-8 ovarian
HL-60(TB) leukemia = tested on: HL-60(TB) leukemia
786-0 renal = tested on: 786-0 renal
MOLT-4 leukemia = tested on: MOLT-4 leukemia
MCF7 breast = tested on: MCF7 breast
HCC-2998 colon = tested on: HCC-2998 colon
DU-145 prostate = tested on: DU-145 prostate
SF-539 CNS = tested on: SF-539 CNS
RPMI-8226 leukemia = tested on: RPMI-8226 leukemia
U251 CNS = tested on: U251 CNS
OVCAR-4 ovarian = tested on: OVCAR-4 ovarian
SR leukemia = tested on: SR leukemia
SK-MEL-28 melanoma = tested on: SK-MEL-28 melanoma
IGROV1 ovarian = tested on: IGROV1 ovarian
MDA-N = tested on: MDA-N
SK-MEL-5 melanoma = tested on: SK-MEL-5 melanoma
NCI-H23 lung = tested on: NCI-H23 lung
SNB-19 CNS = tested on: SNB-19 CNS
MDA-MB-435 = tested on: MDA-MB-435
HT29 colon = tested on: HT29 colon
UACC-62 melanoma = tested on: UACC-62 melanoma
SF-295 CNS = tested on: SF-295 CNS
SW-620 colon = tested on: SW-620 colon
T-47D breast = tested on: T-47D breast
SK-OV-3 ovarian = tested on: SK-OV-3 ovarian
HCT-116 colon = tested on: HCT-116 colon
NCI-H460 lung = tested on: NCI-H460 lung
SF-268 CNS = tested on: SF-268 CNS
HCT-15 colon = tested on: HCT-15 colon
NCI-H226 lung = tested on: NCI-H226 lung
OVCAR-3 ovarian = tested on: OVCAR-3 ovarian
MDA-MB-231 breast = tested on: MDA-MB-231 breast
HS 578T breast = tested on: HS 578T breast
SN12C renal = tested on: SN12C renal
K-562 leukemia = tested on: K-562 leukemia
COLO 205 colon = tested on: COLO 205 colon
CCRF-CEM leukemia = tested on: CCRF-CEM leukemia
NCI/ADR-RES ovarian = tested on: NCI/ADR-RES ovarian
KM12 colon = tested on: KM12 colon
EKVX NSCLC = tested on: EKVX NSCLC
CAKI-1 renal = tested on: CAKI-1 renal
RXF 393 renal = tested on: RXF 393 renal
PC-3 prostate = tested on: PC-3 prostate
A549 NSCLC = tested on: A549 NSCLC
A498 renal = tested on: A498 renal
UACC-257 melanoma = tested on: UACC-257 melanoma
TK-10 renal = tested on: TK-10 renal
SNB-75 CNS = tested on: SNB-75 CNS

Measured: TGI

Nc1nc(Cl)nc(NCc2ccccc2)n1
> 100 µM: all assays above
